Reference: ChEMBL document CHEMBL4825767, “Development of 2-(5,6,7-Trifluoro-1H-Indol-3-yl)-quinoline-5-carboxamide as a Potent, Selective, and Orally Available Inhibitor of Human Androgen Receptor Targeting Its Binding Function-3 for the Treatment of Castration-Resistant Prostate Cancer” (J Med Chem, 2021)

Assay: Half life in human liver microsomes at 2 uM in presence of NADPH measured up to 40 mins

half-life at 40 min, 2 µM: 23 min
Compound: Fc1cc(Cl)c2[nH]cc(-c3ccc4ccccc4n3)c2c1
